“And” between values parts separate entries of the source, which are not always exact repeats. Equal values may be shown once.
Columns and labels:
Format in all cases: physicochemical
[1] = Bediol strain Cannabis, two heating durations; aerosol analyzed using UPLC (Table 3, FIG. 17B); settings: 180 C., 1.1 L/min; for mg API: in aerosol, 13.5 mg Bediol strain Cannabis; for total (acid + neutral form): sum for the acid and its neutral form, 13.5 mg Bediol
Procedure: In the following related experiment performed by the inventors, samples having 13.5 mg of Bediol strain Cannabis (Bedrocan, Holland) were tested using two operation profiles and compared to a raw material. The samples were heated to a temperature of 180° C. under an airflow rate of 1.1 liter/minute. In the first operation profile, the heating duration was 1.5 seconds; in the second operation profile, the heating duration was 2.5 seconds. Aerosol was collected, extracted and analyzed using UPLC. As can be observed from this example, under certain conditions, lengthening the heating duration increased the CBD/total THC ratio (from about 0.79 in the first operation profile to about 0.96 in the second operation profile). As can also be observed from this example, under certain conditions, lengthening the heating duration released higher amounts of all active substances tested (CBDA, CBD, THCA, Δ9-THC). (API-active pharmaceutical ingredient).

[2] = FIG. 6: CBDA/CBD and THCA/Δ9-THC ratios at two operation profiles; aerosol analyzed using UPLC; settings: 13.5 mg cannabis; 180° C., airflow 1 liter/minute; 1.5 seconds versus 2.5 second
Procedure: Reference is now made to FIG. 6, which is a bar chart of the ratios between CBDA/CBD and THCA/Δ9-THC received at various operation profiles according to some embodiments of the invention. Samples having 13.5 mg of a defined type of cannabis were tested at two operation profiles. The samples were heated to a temperature of 180° C. under an airflow of 1 liter/minute) for 1.5 seconds and 2.5 second. Aerosol was collected, extracted and analyzed using UPLC.

[3] = Effect of airflow rate on decarboxylation of THCA; aerosol from heated Bedrocan cannabis samples analyzed in UPLC; settings: 13.5 mg Bedrocan sample, 185° C., 1620 ms
Procedure: In the following experiment performed by the inventors, the effect of airflow rate on decarboxylation of THCA was tested. 14 samples (7 samples tested in each of the profiles) of 13.5 mg each of Bedrocan strain (Bedrocan, Holland) were heated for 1620 ms to a temperature of 185° C. In a first operation profile (upper table), the rate of flow through the sample was set to 1.1 L/min; in a second operation profile (lower table), the rate of airflow through the sample was set to 0.85 L/min. Aerosol was collected and extracted and analyzed in UPLC (Ultra performance liquid chromatography) for the presence of THCA and Δ9-THC. As can be observed, in this example, under certain conditions, increasing the rate of flow through the sample increased the percentage of THCA in the aerosol. (As shown below, the percentage of THCA was calculated as the amount of THCA divided by the total amount of both THCA and Δ9-THC.) The graph of FIG. 17A presents the results shown in the table below.

[4] = Various operation profiles (heating temperature, airflow rate, heating duration); aerosol analyzed in UPLC for THCA and Δ9-THC
Procedure: In another experiment performed by the inventors, various operation profiles were tested. In lines 1-9 of the table below, a change in the heating temperature was tested, while the rate of airflow and the heating duration remained constant. Aerosol was collected and extracted and analyzed in UPLC for the presence of THCA and Δ9-THC. A graph presenting the results obtained for the various heating temperatures is shown in FIG. 7 and further discussed below; in lines 10-14 of the table, a change in the rate of airflow was tested, while the temperature and the heating duration remained constant; in lines 17-19 of the table, a change in the heating duration was tested, while the temperature and rate of airflow remained constant. As can be observed, in this example, under certain conditions, increasing the heating temperature (while maintaining other parameters (flow rate, duration of heating) constant) reduced the percentage of THCA released; lengthening the heating duration (while maintaining other parameters constant) reduced the percentage of THCA released. (As shown below, the percentage of THCA was calculated as the amount of THCA divided by the total amount of both THCA and Δ9-THC.)
Reference is now made to FIG. 7 which is a graph showing the effect of the temperature on the relative amount of THCA vaporized. The experiment procedure and the results are also discussed above and presented in Table 2 Samples having 13.5 mg of a defined type of cannabis were tested by applying air at 1.1 liter/minute for 1.5 seconds at various temperatures from 160°° C. to 200° C. The relative amount of THCA were measured against the total amounts of Δ9-THC+THCA. […] Accordingly, by selecting the temperature and/or the time-temperature profile, the amount of THCA provided during inhalation may be controlled (e.g., selected by the user).

| Structure (SMILES) | mg API ([1]; heating duration 1500 ms) [mg] | mg API ([1]; heating duration 2500 ms) [mg] | total (acid + neutral form) ([1]; heating duration 1500 ms) | total (acid + neutral form) ([1]; heating duration 2500 ms) | amount of acids left after vaporization, by heating duration [2] | Δ9-THC ([3]; flow rate 0.85 L/min) | Δ9-THC ([3]; flow rate 1.1 L/min) | Δ9-THC ([4]; 13.5 mg cannabis, 1.1 L/min, 1500 ms, 160° C.) | Δ9-THC ([4]; 13.5 mg cannabis, 1.1 L/min, 1500 ms, 175° C.) | Δ9-THC ([4]; 13.5 mg cannabis, 1.1 L/min, 1500 ms, 200° C.) | Δ9-THC ([4]; 175 C., 1500 ms, flow 1.2 L/min) | Δ9-THC ([4]; 175 C., 1500 ms, flow 1.3 L/min) | Δ9-THC ([4]; 185° C., 1.1 L/min, heating 600 ms) [mg] | Δ9-THC ([4]; 185° C., 1.1 L/min, heating 800 ms) [mg] | Δ9-THC ([4]; 185° C., 1.1 L/min, heating 1000 ms) [mg] |
| --- | --- | --- | --- | --- | --- | --- | --- | --- | --- | --- | --- | --- | --- | --- | --- |
| C=C(C)[C@@H]1CCC(C)=C[C@H]1c1c(O)cc(CCCCC)cc1O [CBD, Cannabidiol, reference compound] | 0.201 | 0.477 |  |  |  |  |  |  |  |  |  |  |  |  |  |
| C=C(C)[C@@H]1CCC(C)=C[C@H]1c1c(O)cc(CCCCC)c(C(=O)O)c1O [CBDA, cannabidiolic acid] | 0.125 | 0.188 | 0.311 | 0.642 | the longer the operation profile the less amount of acids |  |  |  |  |  |  |  |  |  |  |
| CCCCCc1cc(O)c2c(c1)OC(C)(C)[C@@H]1CCC(C)=C[C@@H]21 [Δ9-THC, Δ9-tetrahydrocannabinol, reference compound] | 0.254 | 0.498 |  |  |  | 0.521 mg and 0.559 mg and 0.529 mg and 0.486 mg and 0.434 mg and 0.357 mg and 0.365 mg | 0.462 mg and 0.452 mg and 0.445 mg and 0.484 mg and 0.527 mg and 0.431 mg and 0.587 mg | 0.220 mg and 0.201 mg and 0.208 mg | 0.475 mg and 0.461 mg and 0.478 mg | 0.972 mg and 0.831 mg and 0.790 mg | 0.467 mg and 0.423 mg | 0.459 mg and 0.468 mg and 0.440 mg | 0.093 | 0.315 | 0.620 |

Reference: patent US20250151812A1, “METHOD AND INHALER FOR PROVIDING TWO OR MORE […] INHALATION” (Syqe Medical Ltd., priority 2018, published 2025)
